Here are results for seven compounds from patent US5378838A, “Benzodiazepine cholecystokinin antagonists” (Merck & Co., Inc., priority 1993, dated 1995).

Read-outs that look alike come from different tables or passages of the source. Non-standard residues stand in square brackets, D forms with d. Residues, ends and D or L forms follow the SMILES beside them. *: point of attachment. sY = N[C@@H](Cc1ccc(OS(=O)(=O)O)cc1)C(=O)O; Cbz = O=C(OCc1ccccc1)*

The term IC50 denotes the midpoint of a concentration-inhibition curve.

One assay has as its system CCK-B receptors. Conditions: literature; cited from earlier work.
A further assay has as its system CCK. The note with it: literature; cited from earlier work.
A further assay addresses T1, CCK receptor (brain) (Cavia porcellus, UniProt H0VZC5).
T1 construct: the cortex was removed and homogenized in 25 mL ice-cold 0.32M sucrose; from tissue; host or cells: cortex P2 membranes of male Hartley guinea pigs
T1 sequence (H0VZC5 1-426): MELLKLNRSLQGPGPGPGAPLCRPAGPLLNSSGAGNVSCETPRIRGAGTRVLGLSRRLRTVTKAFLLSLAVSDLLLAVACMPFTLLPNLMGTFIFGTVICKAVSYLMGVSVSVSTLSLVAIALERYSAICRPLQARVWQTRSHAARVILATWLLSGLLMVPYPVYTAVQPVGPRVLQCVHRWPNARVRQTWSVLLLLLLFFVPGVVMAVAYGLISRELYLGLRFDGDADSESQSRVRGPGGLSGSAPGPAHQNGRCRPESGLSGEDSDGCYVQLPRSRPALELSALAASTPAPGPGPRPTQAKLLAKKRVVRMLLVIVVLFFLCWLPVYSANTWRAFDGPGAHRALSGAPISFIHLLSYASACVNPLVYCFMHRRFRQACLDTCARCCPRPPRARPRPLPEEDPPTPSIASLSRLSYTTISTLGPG
Put plainly: CCK Receptor Binding (Brain), inhibition of 125I-CCK-8 binding. Further details: species or system guinea pig (male Hartley). The note with it: guinea pig cortex, 50 pM 125I-CCK-8, pH 6.5, 25° C., 2 hours.

Another assay addresses T2, CCK receptor (pancreas) (Rattus norvegicus, UniProt P30551).
T2 construct: The whole pancreas was dissected free of fat tissue and was homogenized; from tissue; host or cells: whole pancreas membranes of male Sprague-Dawley rats
T2 sequence (P30551 1-444): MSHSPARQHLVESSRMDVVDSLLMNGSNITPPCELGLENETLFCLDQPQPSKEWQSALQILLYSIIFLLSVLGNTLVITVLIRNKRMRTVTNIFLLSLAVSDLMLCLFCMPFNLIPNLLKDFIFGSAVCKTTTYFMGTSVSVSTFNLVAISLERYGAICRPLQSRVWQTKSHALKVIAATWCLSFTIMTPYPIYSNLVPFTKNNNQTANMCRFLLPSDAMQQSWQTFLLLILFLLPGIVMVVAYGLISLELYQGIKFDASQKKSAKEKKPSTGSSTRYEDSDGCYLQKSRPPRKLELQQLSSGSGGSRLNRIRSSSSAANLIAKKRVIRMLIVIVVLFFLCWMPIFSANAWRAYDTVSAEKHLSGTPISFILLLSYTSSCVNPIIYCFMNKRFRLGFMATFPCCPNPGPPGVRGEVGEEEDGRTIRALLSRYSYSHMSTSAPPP
In words: CCK Receptor Binding (Pancreas), inhibition of 125I-CCK-8 binding. On the set-up: species or system rat (male Sprague-Dawley). How it is done: 1. CCK Receptor Binding (Pancreas)
Male Sprague-Dawley rats (150-200 g) were sacrificed by decapitation. The whole pancreas was dissected free of fat tissue and was homogenized in 25 volumes of ice-cold 10 mM Hepes buffer with 0.1% soya bean trypsin inhibitor (pH 7.4 at 25° C.) with a Kinematica Polytron. The homogenates were centrifuged at 47,800 g for 10 min. Pellets were resuspended in 10 volumes of binding assay buffer (20 mM Hepes, 1 mM EGTA, 5 mM MgCl2, 150 mM NaCl, bacitracin 0.25 mg/ml, soya bean trypsin inhibitor 0.1 mg/ml, and bovine serum albumin 2 mg/ml, pH 6.5 at 25° C.) using a teflon homogenizer, 15 strokes at 500 rpm. The homogenate was further diluted in binding assay buffer to give a final concentration of 0.5 mg original wet weight/l ml buffer. […] All assays were run in duplicate. The reaction mixtures were incubated at 25° C. for 2 hours and the reaction terminated by rapid filtration (Brandell 24 well cell harvester) over Whatman GF/C filters, washing 3×4 mls with ice-cold 100 mM NaCl. The radioactivity on the filters was counted with a LKB gamma counter.
Drug displacement studies were performed with at least 10 concentrations of compounds of formula 1 and the IC50 values were determined by regression analysis.

Protocol for CCK receptor (brain): CCK-8 sulphated was radiolabelled and the binding was performed according to the description for the pancreas method with minor modifications.
Male Hartley guinea pigs (300-500g) were sacrificed by decapitation and the cortex was removed and homogenized in 25 mL ice-cold 0.32M sucrose. The homogenates were centrifuged at 1000 g for 10 minutes and the resulting supernatant was recentrifuged at 20,000 g for 20 minutes. […] All assays were run in duplicate. The reaction mixtures were incubated at 25° C. for 2 hours and then the reaction was terminated on Whatman GF/C filters by rapid filtration (Brandell 24 well cell Harvester) with 3×5 ml washes of cold 100 mM NaCl. The radioactivity on the filters was then counted with a LKB gamma counter.
Drug displacement studies were performed with at least 10 concentrations of compounds of formula 1 and the IC50 values were determined by regression analysis. IC50 refers to the concentration of the compound required to inhibit 50% of specific binding of ^125 I-CCK-8.

With `Cc1cccc(NC(=O)N[C@@H]2N=C(c3ccccc3)c3ccccc3N(C)C2=O)c1` [(R)-N-(2,3-dihydro-1-methyl-2-oxo-5-phenyl-1H-1,4-benzodiazepin-3-yl)-N^1-(3-methylphenyl) urea], the “antagonist of CCK-B receptors (in words)” value with CCK-B receptors is “potent and selective antagonist of CCK-B receptors”.

Turning to `CSCC[C@H](NC(=O)[C@H](Cc1ccc(OS(=O)(=O)O)cc1)NC(=O)OCc1ccccc1)C(=O)NCC(=O)N[C@@H](Cc1c[nH]c2ccccc12)C(=O)N[C@@H](CCSC)C(=O)N[C@@H](CC(=O)O)C(N)=O` [Cbz-Tyr(SO3 H)-Met-Gly-Trp-Met-Asp-NH2] (Cbz-[sY]MGWMD-NH2), in the assay on CCK, the “CCK antagonist / agonist activity (in words)” value is “partial agonist”.

Regarding `CN1C(=O)[C@H](NC(=O)Nc2ccc3c(c2)CCC(N)(C(=O)O)C3)N=C(c2ccccc2)c2ccccc21` (stereo partly drawn) [Example 20, N-{(3R)-1,3-Dihydro-1-methyl-2-oxo-5-phenyl-1H-1,4-benzodiazepin-3-yl}-N'-{[6-(2-(R,S)-amino-1,2,3,4-tetrahydro-2-naphthoic acid)]-urea}], the IC50 at CCK receptor (brain) is 3.52 µM; at CCK receptor (pancreas), more than 3 µM.

Turning to `COC(=O)C1(NC(=O)OC(C)(C)C)CCc2c(cccc2NC(=O)N[C@@H]2N=C(c3ccccc3)c3ccccc3N(C)C2=O)C1` (stereo partly drawn) [Example 21, N-{(3R)-1,3-Dihydro-1-methyl-2-oxo-5-phenyl-1H-1,4-benzodiazepin-3-yl}-N'-{[5-(methyl-2-(R,S)-tert-butyloxycarbonylamino-1,2,3,4-tetrahydro-2-naphthoate)]-urea}], the half-inhibitory concentration (IC50) is 1.69 µM at CCK receptor (brain) and more than 3 µM at CCK receptor (pancreas) (read-out: IC50 125I-CCK Pancreas, rat pancreas, 50 pM 125I-CCK-8, pH 6.5, 25° C., 2 hours).

In the case of `COC(=O)C1(N)CCc2c(cccc2NC(=O)N[C@@H]2N=C(c3ccccc3)c3ccccc3N(C)C2=O)C1` (stereo partly drawn) [Example 22, N-{(3R)-1,3-Dihydro-1-methyl-2-oxo-5-phenyl-1H-1,4-benzodiazepin-3-yl}-N'-{[5-(methyl-2-(R,S)-amino-1,2,3,4-tetrahydro-2-naphthoate)]-urea}], the concentration for half-maximal inhibition (IC50) was 2.16 µM on CCK receptor (brain) and more than 3 µM at CCK receptor (pancreas).

Regarding `CN1C(=O)[C@H](NC(=O)Nc2cccc3c2CCC(N)(C(=O)O)C3)N=C(c2ccccc2)c2ccccc21` (stereo partly drawn) [Example 23, N-{(3R)-1,3-Dihydro-1-methyl-2-oxo-5-phenyl-1H-1,4-benzodiazepin-3-yl}-N'-{[5-(2-(R,S)-amino-1,2,3,4-tetrahydro-2-naphthoic acid)]-urea}], the IC50 at CCK receptor (brain) and on CCK receptor (pancreas) was more than 3 µM in each case.

For the compound `CCCC(=O)Nc1nc2c(ncn2[C@@H]2O[C@@H]3COP(=O)(O)O[C@H]3[C@H]2OC(=O)CCC)c(=O)[nH]1` [dibutyryl cyclic GMP], the “CCK antagonist / agonist activity (in words)” value in the assay with CCK was “the most potent”.
